Here are results for six compounds from patent US20110297235A1, “USE OF TRIARYLAMINE DERIVATIVES AS HOLE-CONDUCTING MATERIALS IN ORGANIC SOLAR CELLS AND ORGANIC SOLAR CELLS CONTAINING SAID TRIARYLAMINE DERIVATIVES” (BASF SE, priority 2009, published 2011).

Values after ≈ are worked out from the molar mass of the structure shown.

The conditions of data set [1]: in vivo; cited from earlier work.
Data set [2] in a line: Glass transition temperature Tg and morphology M by means of DSC. Format: physicochemical.
The nature of data set [3]: Decomposition temperature Td by means of TGA. Format: physicochemical.
A short description of data set [4]: physchem. The note with it: organic solvent or mixture.

By LD50 is commonly meant the dose at which mortality reaches 50%. In general, solubility refers to the concentration that dissolves in the medium under given conditions.

`Clc1ccccc1` [chlorobenzene]: in data set [1], the LD50 was 2900 mg/kg.
Consider `CCN(CC)c1ccc(N(c2ccc(-c3ccc(N(c4ccc(OC)cc4)c4ccc(OC)cc4)cc3)cc2)c2ccc(-c3ccc(N(c4ccc(-c5ccc(N(c6ccc(OC)cc6)c6ccc(OC)cc6)cc5)cc4)c4ccc(N(CC)CC)cc4)cc3)cc2)cc1` [ID521], for which, in data set [2], the “glass transition temperature Tg” value stood at 138 °C. Further, the “decomposition temperature Td” value in data set [3] turned out to be 420 °C. Besides, the solubility was 400 to 550 mg/mL (≈ 323 to 444 mM) in data set [4] (solubility L in chlorobenzene), 90 to 110 mg/mL (≈ 72.7 to 88.9 mM) in data set [4] (solubility in Ethyl acetate), 440 to 580 mg/mL (≈ 356 to 469 mM) in data set [4] (solubility in Tetrahydrofuran) and 500 to 1000 mg/mL (≈ 404 to 808 mM) in data set [4] (solubility in Toluene).
In the case of `COc1ccc(N(c2ccc(OC)cc2)c2ccc(-c3ccc(N(c4ccc(OC)cc4)c4ccc(C5(c6ccc(N(c7ccc(OC)cc7)c7ccc(-c8ccc(N(c9ccc(OC)cc9)c9ccc(OC)cc9)cc8)cc7)cc6)CCCCC5)cc4)cc3)cc2)cc1` [ID452], in data set [2], the “glass transition temperature Tg” value is 123 °C. The “decomposition temperature Td” value in data set [3] was determined as 450 °C. Besides, the solubility in data set [4] (solubility L in chlorobenzene) was 650 to 1300 mg/mL (≈ 525 to 1050 mM); in data set [4] (solubility in Tetrahydrofuran) it was 300 to 600 mg/mL (≈ 242 to 485 mM); in data set [4] (solubility in Toluene) it was > 270 mg/mL.
As for `CCCCCCC1(CCCCCC)c2cc(N(c3ccc(OCC(CC)CCCC)cc3)c3ccc(-c4ccc(N(c5ccc(OC)cc5)c5ccc(OC)cc5)cc4)cc3)ccc2-c2ccc(N(c3ccc(OCC(CC)CCCC)cc3)c3ccc(-c4ccc(N(c5ccc(OC)cc5)c5ccc(OC)cc5)cc4)cc3)cc21` (stereo not drawn) [ID569], the “glass transition temperature Tg” value in data set [2] worked out at 47 °C. Further, the “decomposition temperature Td” value in data set [3] worked out at 440 °C. Moreover, the solubility in data set [4] (solubility L in chlorobenzene) is 400 to 800 mg/mL (≈ 261 to 522 mM).
In the case of `COc1ccc(N(c2ccc(OC)cc2)c2ccc(-c3ccc(N(c4ccc(OC)cc4)c4ccc5c(c4)C(C)(C)c4cc(N(c6ccc(OC)cc6)c6ccc(-c7ccc(N(c8ccc(OC)cc8)c8ccc(OC)cc8)cc7)cc6)ccc4-5)cc3)cc2)cc1` [ID447], the “glass transition temperature Tg” value in data set [2] turned out to be 137 °C. Besides, the “decomposition temperature Td” value in data set [3] is 430 °C. Besides, the solubility in data set [4] (solubility L in chlorobenzene) is 900 to 1800 mg/mL (≈ 753 to 1510 mM); in data set [4] (solubility in Ethyl acetate) it was > 660 mg/mL; in data set [4] (solubility in Tetrahydrofuran), 750 to 1500 mg/mL (≈ 627 to 1250 mM); in data set [4] (solubility in Toluene), > 520 mg/mL.
For `COc1ccc(N(c2ccc(OC)cc2)c2ccc(-c3ccc(N(c4ccc(OC)cc4)c4ccc5c(c4)Cc4cc(N(c6ccc(OC)cc6)c6ccc(-c7ccc(N(c8ccc(OC)cc8)c8ccc(OC)cc8)cc7)cc6)ccc4-5)cc3)cc2)cc1` [ID523], the “glass transition temperature Tg” value in data set [2] came out at 141 °C. In data set [3], the “decomposition temperature Td” value came out at 450 °C. Moreover, the solubility in data set [4] (solubility L in chlorobenzene) lay in the range of 1250 to 2500 mg/mL (≈ 1070 to 2140 mM); in data set [4] (solubility in Ethyl acetate), 240 to 480 mg/mL (≈ 206 to 411 mM); in data set [4] (solubility in Tetrahydrofuran), 400 to 550 mg/mL (≈ 343 to 471 mM); in data set [4] (solubility in Toluene), 900 to 1800 mg/mL (≈ 771 to 1540 mM).
